Laboratory results taken from PubChem BioAssay (NCI).
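GI50 is the concentration that inhibits growth by half. TGI denotes the concentration required for complete inhibition of growth.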

Assays:
Assay in all cases: NCI anticancer screen, dose series, 384-well format
[1] = test system: OVCAR-5 ovarian
[2] = test system: SF-268 CNS
[3] = test system: NCI-H460 NSCLC
[4] = test system: A498 renal
[5] = test system: MCF7 breast
[6] = test system: MALME-3M melanoma
[7] = test system: NCI-H226 lung
[8] = test system: OVCAR-3 ovarian
[9] = test system: MDA-MB-435 melanoma
[10] = test system: DU-145 prostate
[11] = test system: IGROV1 ovarian
[12] = test system: SN12C renal
[13] = test system: SF-539 CNS
[14] = test system: RXF 393 renal
[15] = test system: SR leukemia
[16] = test system: CCRF-CEM leukemia
[17] = test system: HS 578T breast
[18] = test system: UACC-62 melanoma
[19] = test system: MOLT-4 leukemia
[20] = test system: M14 melanoma
[21] = test system: PC-3 prostate
[22] = test system: SNB-75 CNS
[23] = test system: BT-549 breast
[24] = test system: U251 glioblastoma
[25] = test system: SNB-19 CNS
[26] = test system: UO-31 renal
[27] = test system: OVCAR-8 ovarian
[28] = test system: MDA-MB-231 breast
[29] = test system: HT29 colon
[30] = test system: SW-620 colon
[31] = test system: EKVX NSCLC
[32] = test system: A549 NSCLC
[33] = test system: SK-OV-3 ovarian
[34] = test system: HCC-2998 colon
[35] = test system: SK-MEL-5 melanoma
[36] = test system: HCT-15 colon
[37] = test system: MDA-MB-468 breast
[38] = test system: HL-60(TB) leukemia
[39] = test system: SK-MEL-28 melanoma
[40] = test system: HOP-62 NSCLC
[41] = test system: HOP-92 NSCLC
[42] = test system: CAKI-1 renal
[43] = test system: UACC-257 melanoma
[44] = test system: T-47D breast
[45] = test system: 786-0 renal
[46] = test system: LOX IMVI melanoma
[47] = test system: SF-295 CNS
[48] = test system: NCI-H522 lung
[49] = test system: OVCAR-4 ovarian
[50] = test system: NCI-H23 lung
[51] = test system: KM12 colon
[52] = test system: NCI/ADR-RES ovarian
[53] = test system: RPMI-8226 leukemia
[54] = test system: K-562 leukemia
[55] = test system: NCI-H322M lung
[56] = test system: ACHN renal
[57] = test system: COLO 205 colon
[58] = test system: TK-10 renal

SMILES: CC(CN(C)C)S(=O)(=O)c1ccc(-c2cnc(N)c(C(=O)Nc3ccccc3)n2)cc1 (stereo unspecified)
- GI50 [1]: 3.84 µM
- TGI [1]: 14 µM
- GI50 [2]: 3.49 µM
- TGI [2]: 12.4 µM
- GI50 [3]: 0.696 µM
- TGI [3]: 6.72 µM
- GI50 [4]: 0.343 µM
- TGI [4]: 1.35 µM
- GI50 [5]: 0.844 µM
- TGI [5]: 13.4 µM
- GI50 [6]: 1.81 µM
- TGI [6]: 5.29 µM
- GI50 [7]: 3.25 µM
- TGI [7]: 12.9 µM
- GI50 [8]: 3.04 µM
- TGI [8]: 14.2 µM
- GI50 [9]: 3.82 µM
- TGI [9]: 16.1 µM
- GI50 [10]: 2.9 µM
- TGI [10]: 13.4 µM
- GI50 [11]: 1.99 µM
- TGI [11]: 5.27 µM
- GI50 [12]: 5.15 µM
- TGI [12]: 20 µM
- GI50 [13]: 1.14 µM
- TGI [13]: 2.62 µM
- GI50 [14]: 2.03 µM
- TGI [14]: 10.7 µM
- GI50 [15]: 0.385 µM
- TGI [15]: 1.4 µM
- GI50 [16]: 0.519 µM
- TGI [16]: 1.66 µM
- GI50 [17]: 0.837 µM
- TGI [17]: 3.17 µM
- GI50 [18]: 2.14 µM
- TGI [18]: 9.84 µM
- GI50 [19]: 0.515 µM
- TGI [19]: 1.62 µM
- GI50 [20]: 1.73 µM
- TGI [20]: 10.7 µM
- GI50 [21]: 5.52 µM
- TGI [21]: 24.4 µM
- GI50 [22]: 9.27 µM
- TGI [22]: > 100 µM
- GI50 [23]: 0.556 µM
- TGI [23]: 2.69 µM
- GI50 [24]: 2.51 µM
- TGI [24]: 12.1 µM
- GI50 [25]: 4.56 µM
- TGI [25]: 18.5 µM
- GI50 [26]: 3.64 µM
- TGI [26]: > 100 µM
- GI50 [27]: 3.82 µM
- TGI [27]: 14.9 µM
- GI50 [28]: 12.9 µM
- TGI [28]: 36.3 µM
- GI50 [29]: 1.61 µM
- TGI [29]: 3.69 µM
- GI50 [30]: 1.71 µM
- TGI [30]: 3.25 µM
- GI50 [31]: 8.14 µM
- TGI [31]: 31.3 µM
- GI50 [32]: 2.17 µM
- TGI [32]: 27.5 µM
- GI50 [33]: 2.18 µM
- TGI [33]: 13.1 µM
- GI50 [34]: 0.314 µM
- TGI [34]: 0.937 µM
- GI50 [35]: 2.27 µM
- TGI [35]: 6.06 µM
- GI50 [36]: 1.03 µM
- TGI [36]: 2.43 µM
- GI50 [37]: 0.412 µM
- TGI [37]: 1.34 µM
- GI50 [38]: 1.49 µM
- TGI [38]: 2.83 µM
- GI50 [39]: 2.39 µM
- TGI [39]: 6.47 µM
- GI50 [40]: 2.3 µM
- TGI [40]: 14.1 µM
- GI50 [41]: 1.4 µM
- TGI [41]: 10.8 µM
- GI50 [42]: 2.77 µM
- TGI [42]: 14.7 µM
- GI50 [43]: 1.73 µM
- TGI [43]: 3.35 µM
- GI50 [44]: 9.82 µM
- TGI [44]: 22.2 µM
- GI50 [45]: 0.753 µM
- TGI [45]: 2.66 µM
- GI50 [46]: 2.48 µM
- TGI [46]: 11.5 µM
- GI50 [47]: 2.85 µM
- TGI [47]: 9.55 µM
- GI50 [48]: 10.3 µM
- TGI [48]: 22.3 µM
- GI50 [49]: 1.13 µM
- TGI [49]: 4.19 µM
- GI50 [50]: 1.07 µM
- TGI [50]: 4.51 µM
- GI50 [51]: 2.79 µM
- TGI [51]: 12.3 µM
- GI50 [52]: 3.11 µM
- TGI [52]: 15.1 µM
- GI50 [53]: 1.56 µM
- TGI [53]: 4.48 µM
- GI50 [54]: 1.89 µM
- TGI [54]: 3.53 µM
- GI50 [55]: 1.1 µM
- TGI [55]: 15.5 µM
- GI50 [56]: 0.979 µM
- TGI [56]: 7.41 µM
- GI50 [57]: 2.25 µM
- TGI [57]: 5.9 µM
- GI50 [58]: 0.993 µM
- TGI [58]: 7.61 µM
